Assay results taken from patent EP4635500A1, “THERAPEUTIC AGENT FOR BACTERIAL INFECTION” (Sumitomo Pharma Co., Ltd., priority 2022, dated 2024).
Values after ≈ are worked out from the molar mass of the structure shown. Read-outs that look alike come from different tables or passages of the source.

Columns and labels:
Format in all cases: cell-based
CRE and CPE strains = experiment: MIC, broth microdilution, standard strains and Japanese clinical isolates (Example 5, Table 4 continued; organism of each KUB strain not given)
Providencia rettgeri = experiment: MIC, broth microdilution, standard strains and Japanese clinical isolates (Example 5, Table 4); conditions: ATCCBAA2525; KUB4010 Providencia rettgeri ATCC BAA-2525, OXA-181
Enterobacterales = experiment: MIC, broth microdilution, CDC/FDA Antibiotic Resistance Isolate Bank (Example 7, Tables 8, 11, 12); conditions: read-out: MIC
53 CRE and CPE strains = experiment: MICrange, MIC50, MIC80, MIC90 for 53 bacterial isolates (Example 5, Table 5); conditions: 53 bacterial isolates
Klebsiella pneumoniae = experiment: MIC, broth microdilution, standard strains and Japanese clinical isolates (Example 5, Table 4); conditions: IMP-6
Escherichia coli = experiment: as above; conditions: ATCCBAA2452; KUB4005 Escherichia coli ATCC BAA-2452, NDM-1

Q: Which results are given for `C[C@H]1[C@H](NC(=O)/C(=N\OC(C)(C)C(=O)O)c2csc(N)n2)C(=O)N1S(=O)(=O)O` [Aztreonam, aztreonam]?
A: MIC (CRE and CPE strains; strain KUB3149, carbapenemase gene NDM-1, read-out: MIC): 8 µg/mL (≈ 18.4 µM); MIC (CRE and CPE strains; strain KUB3150, carbapenemase gene OXA-48, read-out: MIC): 8 µg/mL (≈ 18.4 µM); MIC (CRE and CPE strains; strain KUB3151, carbapenemase gene IMP-1, read-out: MIC): 0.25 µg/mL (≈ 0.574 µM); MIC (CRE and CPE strains; strain KUB3158, carbapenemase gene OXA-48): 0.12 µg/mL (≈ 0.276 µM); MIC (CRE and CPE strains; strain KUB3163, carbapenemase gene IMP-1): 0.12 µg/mL (≈ 0.276 µM); MIC (CRE and CPE strains; strain KUB3164, carbapenemase gene IMP-6): 16 µg/mL (≈ 36.7 µM); MIC (CRE and CPE strains; strain KUB3165, carbapenemase gene IMP-34): ≤ 0.03 µg/mL; MIC (CRE and CPE strains; strain KUB3166, carbapenemase gene IMP-1): 4 µg/mL (≈ 9.19 µM); MIC (CRE and CPE strains; strain KUB3628, carbapenemase gene IMP-1): 0.06 µg/mL (≈ 0.138 µM); MIC (Providencia rettgeri): 1 µg/mL (≈ 2.3 µM); MIC (Enterobacterales; Enterobacter cloacae, Enterobacter cloacae KUB No. 5807, AR Bank #501): 1 µg/mL (≈ 2.3 µM); MIC (Enterobacterales; Enterobacter cloacae, Enterobacter cloacae group, KUB No. 5629, AR Bank # 132): 2 µg/mL (≈ 4.59 µM); MIC (Enterobacterales; Enterobacter cloacae, KUB No. 5529, AR Bank# 32): 32 µg/mL (≈ 73.5 µM); MIC (Enterobacterales; Enterobacter cloacae, KUB No. 5557, AR Bank# 60): 32 µg/mL (≈ 73.5 µM); MIC (Enterobacterales; Enterobacter cloacae, KUB No. 5570, AR Bank # 73): 4 µg/mL (≈ 9.19 µM); MIC (Enterobacterales; Enterobacter cloacae, KUB No. 5778, AR Bank # 432): 32 µg/mL (≈ 73.5 µM); MIC (Enterobacterales; Escherichia coli, Escherichia coli KUB No. 5796, AR Bank #452): 0.12 µg/mL (≈ 0.276 µM); MIC (Enterobacterales; Escherichia coli, Escherichia coli KUB No. 5803, AR Bank #861): 1 µg/mL (≈ 2.3 µM); MIC (Enterobacterales; Escherichia coli, KUB No. 5552, AR Bank# 55): 32 µg/mL (≈ 73.5 µM); MIC (Enterobacterales; Escherichia coli, KUB No. 5555, AR Bank# 58): 8 µg/mL (≈ 18.4 µM); MIC (Enterobacterales; Escherichia coli, KUB No. 5564, AR Bank # 67): 4 µg/mL (≈ 9.19 µM); MIC (Enterobacterales; Escherichia coli, KUB No. 5566, AR Bank # 69): 4 µg/mL (≈ 9.19 µM); MIC (Enterobacterales; Escherichia coli, KUB No. 5574, AR Bank # 77): 0.06 µg/mL (≈ 0.138 µM); MIC (Enterobacterales; Escherichia coli, KUB No. 5578, AR Bank # 81): 8 µg/mL (≈ 18.4 µM); MIC (Enterobacterales; Escherichia coli, KUB No. 5581, AR Bank # 84): 0.5 µg/mL (≈ 1.15 µM); MIC (Enterobacterales; Escherichia coli, KUB No. 5582, AR Bank # 85): 16 µg/mL (≈ 36.7 µM); MIC (Enterobacterales; Escherichia coli, KUB No. 5583, AR Bank # 86): 4 µg/mL (≈ 9.19 µM); MIC (Enterobacterales; Escherichia coli, KUB No. 5586, AR Bank # 89): 16 µg/mL (≈ 36.7 µM); MIC (Enterobacterales; Escherichia coli, KUB No. 5615, AR Bank # 118): 32 µg/mL (≈ 73.5 µM); MIC (Enterobacterales; Escherichia coli, KUB No. 5646, AR Bank # 149): 0.5 µg/mL (≈ 1.15 µM); MIC (Enterobacterales; Escherichia coli, KUB No. 5647, AR Bank # 150): 32 µg/mL (≈ 73.5 µM); MIC (Enterobacterales; Escherichia coli, KUB No. 5648, AR Bank # 151): 32 µg/mL (≈ 73.5 µM); MIC (Enterobacterales; Escherichia coli, KUB No. 5764, AR Bank # 368): 0.06 µg/mL (≈ 0.138 µM); MIC (Enterobacterales; Escherichia coli, KUB No. 5767, AR Bank # 371): 16 µg/mL (≈ 36.7 µM); MIC (Enterobacterales; Escherichia coli, KUB No. 5769, AR Bank # 373): 16 µg/mL (≈ 36.7 µM); MIC (Enterobacterales; Escherichia coli, KUB No. 5770, AR Bank # 374): 16 µg/mL (≈ 36.7 µM); MIC (Enterobacterales; Escherichia coli, KUB No. 5774, AR Bank # 378): 0.12 µg/mL (≈ 0.276 µM); MIC (Enterobacterales; Escherichia coli, KUB No. 5779, AR Bank # 433): 32 µg/mL (≈ 73.5 µM); MIC (Enterobacterales; Escherichia, KUB No. 57, AR Bank # 436 (row cut off)): 32 µg/mL (≈ 73.5 µM); MIC (Enterobacterales; Klebsiella aerogenes, Enterobacter aerogenes, KUB No. 5559, AR Bank # 62): 16 µg/mL (≈ 36.7 µM); MIC (Enterobacterales; Klebsiella aerogenes, Enterobacter aerogenes, KUB No. 5571, AR Bank # 74): 0.12 µg/mL (≈ 0.276 µM); MIC (Enterobacterales; Klebsiella aerogenes, Enterobacter aerogenes, KUB No. 5658, AR Bank # 161): 32 µg/mL (≈ 73.5 µM); MIC (Enterobacterales; Klebsiella aerogenes, Enterobacter aerogenes, KUB No. 5777, AR Bank # 431): 16 µg/mL (≈ 36.7 µM); MIC (Enterobacterales; Klebsiella oxytoca, KUB No. 5644, AR Bank # 147): 4 µg/mL (≈ 9.19 µM); MIC (Enterobacterales; Klebsiella oxytoca, KUB No. 5771, AR Bank # 375): 32 µg/mL (≈ 73.5 µM); MIC (Enterobacterales; Klebsiella pneumoniae, KUB No. 5531, AR Bank# 34): 0.06 µg/mL (≈ 0.138 µM); MIC (Enterobacterales; Klebsiella pneumoniae, KUB No. 5573, AR Bank # 76): 0.25 µg/mL (≈ 0.574 µM); MIC (Enterobacterales; Klebsiella pneumoniae, KUB No. 5623, AR Bank # 126): 32 µg/mL (≈ 73.5 µM); MIC (Enterobacterales; Klebsiella pneumoniae, KUB No. 5657, AR Bank # 160): 0.12 µg/mL (≈ 0.276 µM); MIC (Enterobacterales; Klebsiella pneumoniae, Klebsiella pneumoniae KUB No. 5809, AR Bank #504): 32 µg/mL (≈ 73.5 µM); MIC (Enterobacterales; Morganella morganii, Morganella morganii KUB No. 5824, AR Bank #519): 32 µg/mL (≈ 73.5 µM); MIC (Enterobacterales; Proteus mirabilis, KUB No. 5556, AR Bank# 59): 0.25 µg/mL (≈ 0.574 µM); MIC (Enterobacterales; Proteus mirabilis, KUB No. 5652, AR Bank # 155): 4 µg/mL (≈ 9.19 µM); MIC (Enterobacterales; Proteus mirabilis, KUB No. 5653, AR Bank # 156): ≤ 0.03 µg/mL; MIC (Enterobacterales; Proteus mirabilis, KUB No. 5656, AR Bank # 159): ≤ 0.03 µg/mL; MIC (Enterobacterales; Proteus mirabilis, KUB No. 5773, AR Bank # 377): 4 µg/mL (≈ 9.19 µM); MIC (Enterobacterales; Proteus mirabilis, KUB No. 5775, AR Bank # 379): 0.25 µg/mL (≈ 0.574 µM); MIC (Enterobacterales; Providencia rettgeri, KUB No. 5579, AR Bank # 82): ≤ 0.03 µg/mL; MIC (Enterobacterales; Raoultella ornithinolvtica, KUB No. 5631, AR Bank # 134): 8 µg/mL (≈ 18.4 µM); MIC (Enterobacterales; Serratia marcescens, KUB No. 5588, AR Bank # 91): 32 µg/mL (≈ 73.5 µM); MIC (Enterobacterales; Serratia marcescens, KUB No. 5618, AR Bank # 121): 16 µg/mL (≈ 36.7 µM); MIC (Enterobacterales; Serratia marcescens, KUB No. 5619, AR Bank # 122): 16 µg/mL (≈ 36.7 µM); MIC (Enterobacterales; Serratia marcescens, KUB No. 5620, AR Bank # 123): 16 µg/mL (≈ 36.7 µM); MIC (Enterobacterales; Serratia marcescens, KUB No. 5621, AR Bank # 124): 8 µg/mL (≈ 18.4 µM); MIC (Enterobacterales; Serratia marcescens, KUB No. 5627, AR Bank # 130): 16 µg/mL (≈ 36.7 µM); MIC (Enterobacterales; Serratia marcescens, KUB No. 5628, AR Bank # 131): 16 µg/mL (≈ 36.7 µM); MIC (Enterobacterales; Serratia marcescens, Serratia marcescens KUB No. 5825, AR Bank #520): 2 µg/mL (≈ 4.59 µM); MIC80 (53 CRE and CPE strains; read-out: MIC80): > 64 µg/mL; MIC90 (53 CRE and CPE strains; read-out: MIC90): > 64 µg/mL; MIC (Klebsiella pneumoniae; KUB3633 Klebsiella pneumoniae Clinical isolate): 8 µg/mL (≈ 18.4 µM); MIC (Klebsiella pneumoniae; KUB3634 Klebsiella pneumoniae Clinical isolate): 16 µg/mL (≈ 36.7 µM); MIC (Escherichia coli): 4 µg/mL (≈ 9.19 µM)
